Key:
[1] = molecular target: 5-hydroxytryptamine receptor 1A (Rattus norvegicus) (UniProt P19327); assay: Ki ratio measured as the Ki values of dopamine receptor to that of 5-hydroxytryptamine 1A receptor
[2] = molecular target: 5-hydroxytryptamine receptor 1A (Rattus norvegicus) (UniProt P19327); assay: Ki ratio measured as the Ki values of dopamine receptor to that of 5-hydroxytryptamine 1A receptor receptor.

5-hydroxytryptamine receptor 1A (Rattus norvegicus), sequence (P19327 whole entry, looked up): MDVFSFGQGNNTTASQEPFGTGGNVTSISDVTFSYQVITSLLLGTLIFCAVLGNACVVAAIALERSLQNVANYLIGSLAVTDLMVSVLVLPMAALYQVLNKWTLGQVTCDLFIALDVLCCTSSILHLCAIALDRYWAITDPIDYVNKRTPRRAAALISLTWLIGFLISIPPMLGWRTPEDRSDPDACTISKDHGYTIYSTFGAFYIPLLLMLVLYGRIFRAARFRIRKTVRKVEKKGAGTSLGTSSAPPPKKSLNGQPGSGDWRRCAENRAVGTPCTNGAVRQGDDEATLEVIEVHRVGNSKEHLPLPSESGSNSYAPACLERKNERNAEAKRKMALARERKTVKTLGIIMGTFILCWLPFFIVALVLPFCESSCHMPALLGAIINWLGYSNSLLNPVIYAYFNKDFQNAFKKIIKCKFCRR

Compound | Ki ratio [1] | Ki ratio [2]
Clc1cccc2c1CC2CCN1CCN(c2cccc3c2OCCO3)CC1 (stereo unspecified) | 26.9 | –
c1ccc2c(c1)CC(N1CCN(c3cccc4c3OCCCO4)CC1)C2 | 51.3 | –
COc1ccccc1N1CCN(C[C@@H](C(=O)NC(C)(C)C)c2ccccc2)CC1 | – | 12
c1ccc2c(c1)CC(N1CCN(c3cccc4c3OCCO4)CC1)C2 | – | 195
c1ccc2c(c1)CC2CCN1CCN(c2cccc3c2OCCO3)CC1 (stereo unspecified) | – | 79.4
COc1cc2c(cc1OC)C(CCN1CCN(c3cccc4c3OCCO4)CC1)CC2 (stereo unspecified) | 83.4 | –
